Data published in patent US4038308A, “Prostaglandin derivatives” (American Home Products Corporation, priority 1976, dated 1977).

Legend:
[1] = tested on: bronchoconstricting effects of a standard dose of acetylcholine; assay: Bronchodilation upon aerosol inhalation in the guinea pig: inhibition of acetylcholine bronchoconstriction (method of Rosenthale et al.); format: in vivo; conditions: acetylcholine i.v. dose producing ca. 30% bronchoconstriction
Text: In using the compounds of the invention to produce bronchodilating effects in warm-blooded animals, they may be administered in a variety of dosage forms: oral, injectable, and aerosol inhalation. Aerosol inhalation is a preferred method because of its rapid onset of action, great potency, and specificity of action. The particular dosage to obtain the bronchodilating effect will vary with the particular compound employed, the particular animal involved, and the degree of bronchodilation desired. In the guinea pig, by aerosol inhalation, the dose to produce bronchodilation is from about 0.15 micrograms to about 25 micrograms, and preferably from about 0.15 to about 15 micrograms. The bronchodilation produced upon aerosol inhalation can be observed by the method of Rosenthale et al., J. Pharmacol. Exp. Ther., 178, 541 (1971). Using this procedure the following results were obtained:
*The dose (i.v.) of acetylcholine which produces a ca. 30%

[2] = Hypotensive effect (blood pressure change) in the anesthetized dog, intravenous route; format: in vivo; conditions: dose 100 μg/kg., average of two animals
Experimental: In the use of the compounds of the invention to produce hypotensive effects in warm-blooded animals, administration by the injectable route is preferred, preferably the intravenous route.
Thus in the anesthetized dog by the intravenous route the dose to produce hypotension is from about 1 μg/kg. to about 200 μg/kg. and preferably from about 10 μg/kg. to about 100 μg/kg. Using this procedure the following results were obtained.

Structure (SMILES)	Percent Inhibition of the bronchoconstricting effects of a standard dose of acetylcholine ([1]; dose 1.50 μg)	Percent Inhibition of the bronchoconstricting effects of a standard dose of acetylcholine ([1]; dose 15 μg)	Δ B.P. [2]	Percent Inhibition of the bronchoconstricting effects of a standard dose of acetylcholine ([1]; dose 0.15 μg)	Percent Inhibition of the bronchoconstricting effects of a standard dose of acetylcholine ([1]; dose .015 μg)
C#CC1CC(=O)[C@H](CCCCCCC(=O)O)[C@H]1/C=C/C(=O)CCCCC (stereo partly drawn) [(3RS)-3-Ethynyl-5-Oxo-2β-(3-Oxo-Trans-1-Octenyl)-1α-Cyclopentaneheptanoic Acid]	36%	75%			
C#CC1CC(=O)[C@H](C/C=C\CCCC(=O)O)[C@H]1/C=C/[C@@H](O)CCCCC (stereo partly drawn) [7-([3RS]-3-Ethynyl-2β-[(3S)-3-Hydroxy-Trans-1-Octenyl]-5-Oxo-1α-Cyclopentyl)-Cis-5-Heptenoic Acid]			-31 mm. mg		
C#CC1CC(=O)[C@H](C/C=C\CCCC(=O)O)[C@H]1/C=C/[C@H](O)CCCCC (stereo partly drawn) [7-([3RS]-3-Ethynyl-2β-[(3R)-3-Hydroxy-Trans-1-Octenyl]-5-Oxo-1β-Cyclopentyl)-Cis-5-Heptenoic Acid]	43%	68%			
C#CC1CC(=O)[C@H](CCCCCCC(=O)O)[C@H]1/C=C/C(C)(O)CCCCC (stereo partly drawn) [(3RS)-3-Ethynyl-2β[(3RS)-3-Hydroxy-3-Methyl-Trans-1-Octenyl]-5-Oxo-1α-cyclopentane-Heptanoic Acid]	56%	37%	-16 mm. mg	54%	
C#CC1CC(=O)[C@H](C/C=C\CCCC(=O)O)[C@H]1/C=C/C(O)(C#C)CCCCC (stereo partly drawn) [7-[(3RS)-3-Ethynyl-2β-[(3RS)-3-Ethynyl-3-Hydroxy-Trans-1-Octenyl]-5-Oxo-1α-Cyclopentyl]-Cis-5-Heptenoic Acid]	86%		-41 mm. mg	56%	42%
C#C[C@@H]1CC(=O)[C@H](CCCCCCC(=O)O)[C@H]1/C=C/[C@@H](O)CCCCC [3α-Ethynyl-2β-[(3S)-3-Hydroxy-Trans-1-Octenyl]-5-Oxo-1α-Cyclopentaneheptanoic Acid]	58%	76%		52%	28%
